From US10189798B2, “Antimicrobial compounds, methods of making the same and articles comprising them” (MEDICAL TECHNOLOGY RESEARCH INC, priority 2014, dated 2019)

Legend:
[1] = test system: Staphylococcus aureus ATCC6538; experiment: Zone of inhibition (ZOI) assay; assay type: cell-based; conditions: for antimicrobial activity, qualitative: ZOI assay, S. aureus ATCC6538
Experimental: The antimicrobial activity of the antimicrobial silver s-triazine compounds was verified by standard zone of inhibition (ZOI) assay known to those skilled in the art. Briefly, in this assay, samples were placed on plates with proprietary agar formula (similar to Mueller Hinton Agar (MHA)) that were inoculated with bacteria and incubated at 37° C. overnight. If antimicrobial activity in the sample was present, it formed a clear zone around the edges. As negative control, the samples without the silver active compound were used. For primary screening of antimicrobial activity, the gram positive bacteria Staphylococcus aureus ATCC6538 was employed in the assay. To examine broad spectrum antimicrobial activity, various different types of organisms including gram negative Pseudomonas aeruginosa ATCC9027, Methicillin-Resistance Staphylococcus aureus (MRSA) and Vancomycin-Resistant Enterococci (VRE) could be employed. In investigating the broad spectrum activity, the ZOI assay is performed slightly differently. Instead of laying the samples on plates individually inoculated with different types of bacteria, the bacterial inoculums are streaked as parallel lines on one plate. After streaking the inoculum linearly, the samples are deposited as a continuous bead string in perpendicular direction to the streak lines. Evidence of antimicrobial activity in the sample is seen in the form of interruptions on both sides of the edges of the sample string.

[2] = Discoloration on direct sunlight exposure; assay type: physicochemical; conditions: for direct sunlight exposure withstood before any sign of discoloration: undiluted aqueous suspension, ~5500 ppm silver
Experimental: Silver-PDT powder (˜0.027 g) was transferred to the gel and hand-mixed to uniformity with a spatula to obtain clear to hazy gel. […] For DMCA, the tube was kept at ˜25° C. overnight for reaction completion. […] Considering that the amount of silver in the undiluted suspensions was ˜5500 ppm, the discoloration resistance can be considered extraordinary. In contrast, the undiluted suspension of Ag-PDT withstood 0.5 h of sunlight exposure before discoloration was visible. […] A suspension of Ag-MIC was prepared according to Example 13. […] A 2″×2″ piece of cotton gauze was soaked in the clear solution, blotted with paper towel to remove excess and dried at 55° C. for 0.25 to 0.5 h. In the same clear solution prepared separately, a filter paper strip was immersed, shaken and then dried at 55° C. for 0.25 h-0.5 h. Both substrates with silver-MIC were exposed to direct sunlight. […] Thus, in both instances following substrate impregnation, Ag-MIC still maintained robust light discoloration resistance. […] On a clean glass slide, a small volume (˜0.25 ml) was spread with a transfer pipet and left in an oven at 55° C. to dry for 0.5 h. The theoretical amount of silver in the dried coating was estimated at ˜2700 ppm. […] Such coating composition could be useful in providing antimicrobial surfaces. […] Similar sized piece of each dressing was pouched in foil and steam sterilized. After cooling to room temperature the samples were examined for discoloration. None was observed. […] Even after 4 h of direct sunlight exposure, no discoloration of the Ag-PDT impregnated paper was observed. The approximate theoretical amount of silver in the impregnated paper strip was ˜8700 ppm.

[3] = Discoloration on table lamp light exposure; assay type: physicochemical; conditions: for time without discoloration under table lamp light: clear solution with ammonium hydroxide, ~5000 ppm silver, lamp at 12″
Experimental: Stock solutions (0.1M) of monosodium salts of DMCA, EIC and MIC were prepared. […] To accelerate anion exchange between sodium and silver cations, heating of liquids was carried out in microwave between ˜50° to 55° C. The tube contents were cooled and then to each tube neat ammonium hydroxide (0.1 ml) was added which caused the suspensions to clear for all three compounds. […] The theoretical content of silver in the clear solutions was ˜5000 ppm. To a 100 ml PP cup with stir bar, deionized water was added (13.2 ml).

[4] = water, 25° C.
[5] = Discoloration on heat exposure (55° C. / steam sterilization); assay type: physicochemical; conditions: 550 ppm silver
Experimental: The sterilization of any samples (devices or compositions) comprising antimicrobial silver s-triazine compounds was carried out by steam sterilization. By subjecting test samples to steam sterilization, one can ascertain the ability of the antimicrobial silver s-triazine compounds to withstand thermal stresses. […] Thus, the test samples experienced nearly 3.5 h of hostile temperature condition. […] Silver-PDT powder (˜0.027 g) was transferred to the gel and hand-mixed to uniformity with a spatula to obtain clear to hazy gel. […] Similar sized piece of each dressing was pouched in foil and steam sterilized. After cooling to room temperature the samples were examined for discoloration. None was observed.

[6] = Alginate sheet, Example 17, ~4500 ppm silver

Row | Structure (SMILES) | Zone width [1, 6] | antimicrobial activity, qualitative [1] | direct sunlight exposure withstood before any sign of discoloration [2] | time without discoloration under table lamp light [3] | aqueous solubility [4] | gel discoloration in direct sunlight ([2]; carboxymethyl cellulose gel, 550 ppm silver, PP tubes) | discoloration as suspension temperature increased during photo-exposure ([2]; diluted suspension ~1350 ppm silver, temperature ~50° C.) | direct sunlight exposure without discoloration ([2]; impregnated thin paper strip, ~8700 ppm silver) | direct sunlight exposure required before signs of discoloration ([2]; suspension diluted with deionized water, ~1350 ppm silver, PP tube) | gel discoloration at 55° C. ([5]; carboxymethyl cellulose gel, short term exposure) | Zone width ([1]; Cotton gauze, Example 14) | Zone width ([1]; Filter paper, Example 14) | Zone width ([1]; Gel, Example 15, 550 ppm silver) | direct sunlight exposure without discoloration ([2]; impregnated cotton gauze, Example 14) | direct sunlight exposure after which faint cream color registered ([2]; impregnated filter paper strip, Example 14) | gel discoloration under table lamp light ([3]; Laponite gel, 550 ppm silver, overnight) | gel change at 55° C. ([5]; Laponite gel, 4 weeks)
1 | CCn1c(=O)[n-]c(=O)[nH]c1=O.[Ag+] [Ag-EIC] | 8.5 mm | strong activity | 1.5 h | 96 h | 16.5 mg/L |  |  |  |  |  |  |  |  |  |  |  | 
2 | O=c1nc(-c2ccccc2)[nH]c(=O)[n-]1.[Ag+] [Ag-PDT] | 5.5 mm | strong activity | 0.5 h |  |  | no discoloration of gel was seen for up to an hour | no discoloration was seen | > 4 h | over 4 h | did not show any gel discoloration |  |  |  |  |  |  | 
3 | Cn1c(=O)[n-]c(=O)[nH]c1=O.[Ag+] [Ag-MIC] | 9.5 mm | strong activity | 1.5 h | 72 h | 48 mg/L |  |  |  |  |  | 5.5 mm | 8.0 mm | 2.5 mm | > 3 h | 1.5 h | did not discolor | practically unchanged
